Experimental data taken from publication PMC9597486, “Screening of protonstatin-1 (PS-1) analogs for improved inhibitors of plant plasma membrane H^+-ATPase activity” (Frontiers in Plant Science, 2022).

Target: T1, AHA2 central loop (recombinant His-AHA2 central loop) (Arabidopsis thaliana, UniProt P19456)
T1 construct: cytosolic central loop domain only, His-tagged recombinant, fluorescently labelled with NanoTemper RED protein labelling kit
T1 sequence (P19456 292-643 limits assumed): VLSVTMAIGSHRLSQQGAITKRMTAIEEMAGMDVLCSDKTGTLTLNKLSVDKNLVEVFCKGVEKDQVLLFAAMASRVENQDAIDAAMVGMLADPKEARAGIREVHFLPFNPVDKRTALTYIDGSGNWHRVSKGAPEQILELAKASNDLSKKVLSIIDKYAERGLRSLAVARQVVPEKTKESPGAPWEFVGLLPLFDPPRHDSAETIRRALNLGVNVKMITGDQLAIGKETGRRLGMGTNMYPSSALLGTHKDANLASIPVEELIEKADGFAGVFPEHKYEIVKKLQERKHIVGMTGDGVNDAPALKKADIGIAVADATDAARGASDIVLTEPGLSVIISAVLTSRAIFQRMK
Assay: microscale thermophoresis
Assay type: binding

Kd	Structure (SMILES)
4880 ± 660 nM	O=C1NC(=S)S/C1=C\c1ccco1 [PS-1, (Z)-5-(furan-2-ylmethylene)-2-thioxothiazolidin-4-one]
550 ± 50 nM	O=C1NC(=S)S/C1=C\c1ccc[nH]1 [compound 27, (Z)-5-((1H-pyrrol-2-yl)methylene)-2-thioxothiazolidin-4-one]
